Measured values reported in patent US12234207B2, “Halo-(3-(phenylsulfonyl)prop-1-enyl)pyridine derivative and use thereof” (Cureverse Incorporated, priority 2018, dated 2025).
“And” between values parts separate entries of the source, which are not always exact repeats. Equal entries are not always repeated.

Key:
[1] = test system: GCLC, GCLM, and HO-1; experiment: Western blot of Nrf2-related antioxidant enzymes in BV2 cells; type: cell-based; conditions: 0 μM to 10 μM, 24 hours, relative to actin
Text: As a transcription factor, Nrf2 acts to protect cells by increasing antioxidant enzymes in the nucleus. Through preceding Experimental Examples 1 and 6, the activation of Nrf2 by the compound of the present invention was confirmed directly or indirectly. Thus, whether the activated Nrf2 increases antioxidant enzymes was confirmed by measuring the amount of antioxidant enzymes using Western blot. As antioxidant enzymes to be detected, GCLC, GCLM, and HO-1, expression of which is known to increase due to Nrf2, were selected. Specifically, BV2 cells were loaded at a density of 5×10^5 cells/well in a 6-well plate in an amount of 1.5 mL, and incubated in RPM1640 medium for 24 hours. […] The thus-incubated cells were recovered and lysed to extract the total protein, and then subjected to electrophoresis by 10% SDS-PAGE. The total extract subjected to electrophoresis was transferred to a PVDF membrane and then blocked with bovine serum albumin. Thereafter, the amount of antioxidant enzymes expressed in cells was measured using antibodies corresponding to each antioxidant enzyme, and the results are shown in FIG. 2.

[2] = test system: Nrf2; experiment: Western blot of Nrf2 in nuclear extract of BV2 cells; type: cell-based; conditions: 0 μM to 10 μM, 6 hours, relative to Lamin B1
Procedure: Through Experimental Example 1, the activation of Nrf2 by the compounds of the present invention was indirectly confirmed. Thus, in order to directly confirm the effect of the compounds of the present invention on Nrf2 activation, Western blot was performed. […] Specifically, BV2 cells were loaded in a 25T flask at a density of 2×10^6 cells/flask in an amount of 4 mL and incubated in RPM1640 medium for 24 hours. […] The thus-incubated cells were recovered, and the nucleus and cytoplasmic extracts were separated. The thus-separated nuclear extract was electrophoresed by 10% SDS-PAGE, transferred to a PVDF membrane, and blocked with bovine serum albumin (BSA). Thereafter, the amount of Nrf2 protein in the nucleus was measured using an anti-Nrf2 antibody, and the results are shown in FIG. 1. The amount of Nrf2 was measured relative to Lamin B1, which refers to the same amount of nuclear extract.

[3] = Solubility in water; type: physicochemical
Text: In the development of new drugs, the solubility of drugs is one of the very important factors associated with the bio-absorption rate. […] In addition, drugs with low solubility may crystallize in tissues or cause serious toxicity, and thus, the FDA requires additional research results on oral drugs with low solubility. Furthermore, low solubility may also be the biggest cause of failure in the development of candidate materials.

[4] = test system: dopaminergic neurons; experiment: Tyrosine hydroxylase immunohistochemical staining of corpus striatum and substantia nigra, MPTP mice; type: in vivo, C57/BL6 mice; conditions: Compound 15 orally
Text: From the results of Experimental Example 8, the effect of restoring exercise ability by the compound of the present invention was confirmed. In order to confirm whether the recovery of such exercise ability was due to the neuroprotective effect of the compounds of the present invention, brains were excised from mice and analyzed by immunohistochemical staining using tyrosine hydroxylase used as a marker for dopaminergic neurons. As a site for analysis, the corpus striatum and substantia nigra, which are concentrated with dopaminergic neurons, were selected. Specifically, after anesthetizing the mice in the negative control group, the positive control group, and the experimental group with avertin, physiological saline and 4% formaldehyde were injected into the heart, and the brain was excised, which was sequentially immersed in 4% formaldehyde and 30% sucrose, and stored in the refrigerator for one day each. Thereafter, the tissue fragments of the corpus striatum and substantia nigra were obtained from the stored brain using a cryosectioning machine. The brain tissue fragments were stained by DAB staining using a tyrosine hydroxylase antibody, which is specifically expressed in dopaminergic neurons, by immunohistochemical staining, and observed with a microscope, and the results are shown in FIG. 4.

[5] = test system: MPTP-induced Parkinson's disease model; experiment: Coat-hanger test in MPTP-induced Parkinson's disease mice; type: in vivo, C57/BL6 mice; conditions: orally 20 mg/mL once a day for 3 days from the day before MPTP; time limit 3 minutes
Procedure: (§1) A specifically designed animal experiment schedule is shown at the top of FIG. 3. […] The MPTP-induced Parkinson's disease model was prepared by injecting 20 mg/kg of MPTP intraperitoneally at 2-hour intervals a total of 4 times in a day. In the negative control group, physiological saline solution containing no MPTP was injected at the same time. In order to confirm whether or not Parkinson's disease was induced, motor impairment caused by dopaminergic neuronal cell death, known as the main symptom of Parkinson's disease, was confirmed by a vertical grid test and a coat-hanger test.
The coat-hanger test, which is another behavioral experiment that evaluates exercise ability, was conducted as follows, as shown in the bottom left of FIG. 3: when the mice were placed in the middle of a hanger 30 cm away from the floor, the mice moved toward a safe position on the top of the hanger while being hanged, and a score was assigned according to the position at the time point with a time limit of 3 minutes. The specific experimental method and the result are shown at the bottom of FIG. 3. As shown in the graph at the bottom of FIG. 3, most of the negative control moved to the top of the hanger, corresponding to 5 points, but in the case of the positive control, 2 to 3 points were recorded because the mice mainly stopped at both ends of the bottom of the hanger.

[6] = test system: MPTP-induced Parkinson's disease model; experiment: Vertical grid test in MPTP-induced Parkinson's disease mice; type: in vivo, C57/BL6 mice; conditions: orally 20 mg/mL once a day for 3 days from the day before MPTP; test 6 days after MPTP
Procedure: as §1
The vertical grid test evaluates the time to climb down when an experimental animal model is placed on a vertical ladder. In the present invention, the time to turn towards the floor and the total time taken to climb down from the ladder were measured once the mice were placed on a ladder.

[7] = background statement; cited from earlier work
[8] = molecular target: T1, CYP 2C19 (Homo sapiens, UniProt P33261); experiment: Inhibition of CYP activity in human liver microsomes, 2C19; type: in vitro ADME; conditions: 10 μM compound, human liver microsomes 0.25 mg/mL; % activity relative to the negative control
T1 construct: from tissue; host or cells: human liver microsomes
T1 sequence (P33261 whole entry): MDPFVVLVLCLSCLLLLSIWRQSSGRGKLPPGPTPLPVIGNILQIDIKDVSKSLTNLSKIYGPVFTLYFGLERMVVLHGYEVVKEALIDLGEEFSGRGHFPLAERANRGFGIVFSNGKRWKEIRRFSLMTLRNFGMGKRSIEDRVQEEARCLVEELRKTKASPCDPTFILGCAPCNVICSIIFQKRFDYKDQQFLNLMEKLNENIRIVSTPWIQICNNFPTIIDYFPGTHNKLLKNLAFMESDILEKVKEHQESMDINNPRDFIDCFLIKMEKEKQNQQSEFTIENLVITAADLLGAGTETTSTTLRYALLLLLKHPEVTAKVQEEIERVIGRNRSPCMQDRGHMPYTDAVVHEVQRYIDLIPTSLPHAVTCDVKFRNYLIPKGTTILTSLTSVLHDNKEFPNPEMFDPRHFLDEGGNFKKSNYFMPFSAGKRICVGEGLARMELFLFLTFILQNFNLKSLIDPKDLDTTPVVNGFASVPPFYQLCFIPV
Procedure: (§2) Thereafter, the reaction was terminated by adding an acetonitrile solution containing an internal standard substrate (terfenadine), followed by centrifugation (14,000 rpm, 4° C.) for 5 minutes. Subsequently, the supernatant was injected into the LC-MS/MS system, and the metabolites of the substrate drugs were simultaneously analyzed to evaluate the inhibitory ability of these compounds on drug metabolic enzymes. The metabolites of each CYP isoenzyme indicator drug generated through the above reaction were analyzed using the Shimadzu Nexera XR system and TSQ vantage (Thermo). A Kinetex C18 column was used as the HPLC column, and distilled water containing 0.1% formic acid and acetonitrile containing 0.1% formic acid were used as the mobile phase. The generated metabolites were quantified using the quantification mode of multiple reaction monitoring (MRM), and data were analyzed with Xcalibur (version 1.6.1).

[9] = molecular target: hERG channel (Homo sapiens, UniProt Q12809); experiment: hERG channel-binding inhibition (fluorescent tracer polarization); conditions: hERG channel-containing membrane
Sequence of hERG channel (Q12809 whole entry): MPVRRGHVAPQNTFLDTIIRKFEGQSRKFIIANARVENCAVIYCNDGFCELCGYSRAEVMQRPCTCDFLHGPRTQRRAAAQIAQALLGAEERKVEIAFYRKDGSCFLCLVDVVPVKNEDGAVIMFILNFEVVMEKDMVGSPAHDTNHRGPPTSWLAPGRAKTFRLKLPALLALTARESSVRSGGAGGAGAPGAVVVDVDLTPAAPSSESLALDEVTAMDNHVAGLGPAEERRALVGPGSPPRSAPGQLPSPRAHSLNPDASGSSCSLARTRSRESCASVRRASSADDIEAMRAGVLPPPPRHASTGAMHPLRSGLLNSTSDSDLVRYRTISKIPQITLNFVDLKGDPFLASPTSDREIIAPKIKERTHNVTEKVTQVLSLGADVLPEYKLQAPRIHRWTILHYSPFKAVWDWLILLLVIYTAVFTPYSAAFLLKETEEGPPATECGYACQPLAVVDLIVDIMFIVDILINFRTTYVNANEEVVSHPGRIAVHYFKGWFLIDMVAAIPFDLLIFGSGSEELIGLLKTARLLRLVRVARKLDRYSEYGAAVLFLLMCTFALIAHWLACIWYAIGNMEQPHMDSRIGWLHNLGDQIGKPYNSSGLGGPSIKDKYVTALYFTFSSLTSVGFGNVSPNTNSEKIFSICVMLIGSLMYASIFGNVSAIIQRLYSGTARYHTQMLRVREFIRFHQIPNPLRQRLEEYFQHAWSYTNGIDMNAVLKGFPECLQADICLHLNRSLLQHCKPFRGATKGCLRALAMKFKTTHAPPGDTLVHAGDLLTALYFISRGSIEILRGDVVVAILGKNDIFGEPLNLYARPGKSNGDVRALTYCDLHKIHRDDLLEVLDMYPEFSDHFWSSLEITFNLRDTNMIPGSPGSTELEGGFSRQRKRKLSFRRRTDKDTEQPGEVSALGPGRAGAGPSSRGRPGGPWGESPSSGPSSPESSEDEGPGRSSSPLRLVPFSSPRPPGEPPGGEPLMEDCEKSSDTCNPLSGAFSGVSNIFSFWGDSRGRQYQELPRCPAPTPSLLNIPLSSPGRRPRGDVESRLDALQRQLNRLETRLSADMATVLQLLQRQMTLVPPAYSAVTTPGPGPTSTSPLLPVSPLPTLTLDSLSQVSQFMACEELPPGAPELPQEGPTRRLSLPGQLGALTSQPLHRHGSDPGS
Text: The human ether-a-go-go-related gene (hERG) ion channel is an important component of cardiac repolarization, and inhibitors of this channel can induce arrhythmia and sudden death. […] When a fluorescent hERG channel tracer binds to a membrane containing the hERG channel protein, the rotation of the tracer is restricted, thereby maintaining a high polarization state. However, when a competitive inhibitor binds to the hERG channel, the tracer is competitively pushed away from the membrane and depolarized as it loses its direction.

[10] = background statement, cited from earlier work
[11] = background statement; cited from earlier work; remark: listed apart in the source
[12] = test system: Nrf2; experiment: Nrf2 functional cell-based assay (DisoveRx), luminescence; conditions: relative to Compound 15
[13] = molecular target: T2, CYP 2D6 (Homo sapiens, UniProt P10635); experiment: Inhibition of CYP activity in human liver microsomes, 2D6; type: in vitro ADME; conditions: 10 μM compound, human liver microsomes 0.25 mg/mL; % activity relative to the negative control
T2 construct: from tissue; host or cells: human liver microsomes
T2 sequence (P10635 whole entry): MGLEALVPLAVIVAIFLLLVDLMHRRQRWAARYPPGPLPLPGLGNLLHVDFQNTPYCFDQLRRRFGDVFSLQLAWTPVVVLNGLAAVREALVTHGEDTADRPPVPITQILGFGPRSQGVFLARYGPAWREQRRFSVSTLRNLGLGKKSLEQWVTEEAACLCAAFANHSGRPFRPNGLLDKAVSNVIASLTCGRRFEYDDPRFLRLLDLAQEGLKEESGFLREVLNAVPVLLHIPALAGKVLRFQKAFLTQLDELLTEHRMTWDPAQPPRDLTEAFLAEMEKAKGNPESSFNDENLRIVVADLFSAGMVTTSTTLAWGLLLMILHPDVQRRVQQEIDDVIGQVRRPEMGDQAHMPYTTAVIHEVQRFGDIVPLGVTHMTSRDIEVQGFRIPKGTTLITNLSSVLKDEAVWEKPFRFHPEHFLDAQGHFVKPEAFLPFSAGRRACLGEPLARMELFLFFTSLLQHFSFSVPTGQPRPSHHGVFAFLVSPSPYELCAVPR
Procedure: as §2

[14] = molecular target: T3, CYP 3A4 (Homo sapiens, UniProt P08684); experiment: Inhibition of CYP activity in human liver microsomes, 3A4; type: in vitro ADME; conditions: 10 μM compound, human liver microsomes 0.25 mg/mL; % activity relative to the negative control
T3 construct: from tissue; host or cells: human liver microsomes
T3 sequence (P08684 whole entry): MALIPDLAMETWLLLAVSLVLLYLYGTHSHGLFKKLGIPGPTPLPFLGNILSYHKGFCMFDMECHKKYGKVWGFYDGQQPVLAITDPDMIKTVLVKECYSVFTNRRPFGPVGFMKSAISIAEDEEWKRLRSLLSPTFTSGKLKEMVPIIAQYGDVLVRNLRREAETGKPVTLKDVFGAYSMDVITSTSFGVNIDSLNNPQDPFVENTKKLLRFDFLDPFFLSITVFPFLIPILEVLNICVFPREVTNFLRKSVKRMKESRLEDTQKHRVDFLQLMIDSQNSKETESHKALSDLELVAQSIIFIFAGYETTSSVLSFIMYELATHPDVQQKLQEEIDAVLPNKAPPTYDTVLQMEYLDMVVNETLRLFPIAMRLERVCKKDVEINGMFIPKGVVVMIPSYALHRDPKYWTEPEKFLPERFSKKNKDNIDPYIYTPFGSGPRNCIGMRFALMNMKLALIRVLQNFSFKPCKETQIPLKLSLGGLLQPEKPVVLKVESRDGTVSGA
Procedure: as §2

[15] = molecular target: T4, CYP 2C9 (Homo sapiens, UniProt P11712); experiment: Inhibition of CYP activity in human liver microsomes, 2C9; type: in vitro ADME; conditions: 10 μM compound, human liver microsomes 0.25 mg/mL, % activity relative to the negative control
T4 construct: from tissue; host or cells: human liver microsomes
T4 sequence (P11712 whole entry): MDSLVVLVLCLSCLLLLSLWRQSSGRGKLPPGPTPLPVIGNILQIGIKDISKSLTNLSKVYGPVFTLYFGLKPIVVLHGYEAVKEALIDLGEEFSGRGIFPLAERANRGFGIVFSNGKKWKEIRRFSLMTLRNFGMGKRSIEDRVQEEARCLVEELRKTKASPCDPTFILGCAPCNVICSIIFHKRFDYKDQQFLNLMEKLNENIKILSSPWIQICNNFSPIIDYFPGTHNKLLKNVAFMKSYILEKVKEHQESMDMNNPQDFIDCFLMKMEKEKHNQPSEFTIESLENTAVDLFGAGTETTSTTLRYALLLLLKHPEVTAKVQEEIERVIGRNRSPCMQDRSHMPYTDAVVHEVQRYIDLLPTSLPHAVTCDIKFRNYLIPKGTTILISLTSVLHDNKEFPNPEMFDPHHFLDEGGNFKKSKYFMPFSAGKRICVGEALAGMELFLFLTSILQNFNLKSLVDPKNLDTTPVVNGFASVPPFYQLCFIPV
Procedure: as §2

[16] = when administered into the body

| solubility [3] [µg/mL] | CYP 2C19 activity [8] [%] | CYP 2D6 activity [13] [%] | CYP 3A4 activity [14] [%] | CYP 2C9 activity [15] [%] | CYP 2C9 activity ([15]; listed as Comparative Example 1) [%] | SMILES | Expression of Nrf2 and antioxidant enzymes GCLC, GCLM, and HO-1 [1] | Amount of Nrf2 protein in the nucleus [2] | Tyrosine hydroxylase staining of corpus striatum and substantia nigra [4] | Coat-hanger test score, average [5] [points] | Vertical grid test: time to turn [6] | Vertical grid test: total time to climb down [6] | Time until dissipated when administered into the body [7] [h] | IC50 [9] | Cardiac toxicity [10] | Bioavailability [10, 16] | Drug metabolic stability [10, 16] | Solubility in water (in words) [11] | Effect of inducing Nrf2 activity as % of the level of Compound 15 [12] |
| --- | --- | --- | --- | --- | --- | --- | --- | --- | --- | --- | --- | --- | --- | --- | --- | --- | --- | --- | --- |
| ≥ 10000 |  |  |  |  |  | Cl.O=S(=O)(/C=C/c1ncccc1F)c1ccc(OCCCN2CCOCC2)cc1 [Compound 15, (E)-4-(3-(4-(2-(3-fluoropyridin-2-yl)vinylsulfonyl)phenoxy)propyl)morpholine hydrochloride] | increased the expression of antioxidant enzymes through Nrf2 activation in a concentration-dependent manner | promotes the activation of Nrf2 in a concentration-dependent manner | the staining became dark again | ≥ 4 | reduced again to a level similar to that of the negative control group | reduced again to a level similar to that of the negative control group |  |  |  |  |  |  |  |
|  |  |  |  |  |  | C[S+]([O-])CCCCN=C=S (centres unmarked) [SFN (sulforaphane), 1-isothiocyanato-4-methylsulfinylbutane] |  |  |  |  |  |  | ≤ 1 |  |  |  |  |  |  |
| ≤ 10 | 16.8 | 54.9 | 55.6 | 100.0 | 100 | COc1ccccc1S(=O)(=O)/C=C/c1ccccc1Cl [VSC2, (E)-1-chloro-2-(2-(2-methoxyphenylsulfonyl)vinyl)benzene, reference compound] |  |  |  |  |  |  |  | 1000 nM and 1200 nM | cardiac toxicity | low | low | low | about 60% |
